Data published in US12612412B2, “Antiviral heterocyclic compounds” (Enanta Pharmaceuticals, Inc., priority 2021, dated 2026).

tested on: genotype A, "Long" strain RSV; assay: RSV-A assay (CPE protection in Hep-2 cells, ATPlite readout); format: cell-based, Human respiratory syncytial virus (HRSV); conditions: human respiratory syncytial virus, genotype A “Long” strain RSV, MOI 0.1, CPE protection, read-out: Human RSV-A (“Long”)
Description: Hep-2 cells, (originally derived from tumors grown in irradiated-cortisonised weanling rats that had been injected with epidermoid carcinoma tissue from the larynx of a person, but later found to be indistinguishable from HeLa cells by PCR DNA analysis), were used for the culturing of genotype A, “Long” strain RSV. Flasks were inoculated with RSV and viral stocks were collected once cytopathic effect (CPE) was greater than 90%. Viral stocks in 25% sucrose media were snap frozen using liquid nitrogen to increase viral stability. Viral stock titers were quantified by tissue culture infectious dose 50% (TCID50) using 8,000 cells per well and 3-fold viral dilutions across a 96-well plate, cultured for 4 days. Viral stock titers were also quantified by a plaque forming unit assay, as described elsewhere.
Following extensive parameter testing, the final assay is run as follows: Hep-2 cells are seeded into the inner 60 wells of a 96-well plate at 8,000 cells per well in a volume of 50 μL using Growth Media (DMEM without phenol red, 1% L-Glut, 1% Penn/Strep, 1% nonessential amino acids, 10% heat-inactivated FBS). 2-fold serial dilutions of control and test compounds are added to the wells in duplicate in a total volume of 25 μL. Viral stock is then added to the wells at a multiplicity of infection (MOI) of 0.1 in a volume of 25 μL, bringing the total volume of each well to 100 μL. The MOI is calculated using the PFU/mL, or TCID50 if unavailable. Each 96-well plate has a control column of 6 wells with cells and virus but no compound (negative control, max CPE), a column with cells but no compound or virus (positive control, minimum CPE), and a column with no cells or virus or compound (background plate/reagent control). The control wells with cells but no virus are given an additional 25 μL of growth media containing an equal quantity of sucrose as those wells receiving the viral stock in order to keep consistent in media and volume conditions. The outer wells of the plate are filled with 125 μL of moat media (DMEM, 1% Penn/Strep) to act as a thermal and evaporative moat around the test wells. Following a 5-day incubation period, the plates are read using ATPlite (50 uL added per well), which quantifies the amount of ATP (a measure of cell health) present in each well. Assay plates are read using the Envision luminometer. […] EC50 ranges are as follows: A<0.2 μM; B>0.2 μM.

| SMILES | EC50 [nM] |
| --- | --- |
| COc1cc(C(=O)NC[C@](O)(c2cc3c(c(-c4ccc(F)cc4)n2)OC[C@]3(CCl)C(N)=O)C(F)(F)F)cc2cc(C)c(C)nc12 [Example 233, (S)-3-(chloromethyl)-7-(4-fluorophenyl)-5-((S)-1,1,1-trifluoro-2-hydroxy-3-(8-methoxy-2,3-dimethylquinoline-6-carboxamido)propan-2-yl)-2,3-dihydrofuro[2,3-c]pyridine-3-carboxamide] | < 200 |
| CC[C@]1(C(N)=O)COc2c1cc([C@@](O)(CNC(=O)c1cc(OC)c3nc(C4CC4)cn3c1)C(F)(F)F)nc2-c1ccc(F)cc1 [Example 236] | < 200 |
| CC[C@]1(C(N)=O)COc2c1cc([C@@](O)(CNC(=O)c1cc(OC)c3ncccc3c1)C(F)(F)F)nc2-c1ccc(F)cc1 [Example 237] | < 200 |
| CC[C@]1(C(N)=O)COc2c1cc([C@@](O)(CNC(=O)c1cc(OC)c3nc(C)c(Cl)cc3c1)C(F)(F)F)nc2-c1ccc(F)cc1 [Example 238] | > 200 |
| CC[C@]1(C(N)=O)COc2c1cc([C@@](O)(CNC(=O)c1cc(OC)c3ncc(C(F)(F)F)cc3c1)C(F)(F)F)nc2-c1ccc(F)cc1 [Example 239] | < 200 |
| CC[C@]1(C(N)=O)COc2c1cc([C@@](O)(CNC(=O)c1ccc(OC3CC3)c(OC)c1)C(F)(F)F)nc2-c1ccc(F)cc1 [Example 241] | < 200 |
| CC[C@]1(C(N)=O)COc2c1cc([C@@](O)(CNC(=O)c1ccc(OC[C@@H](C)O)c(OC3CC3)c1)C(F)(F)F)nc2-c1ccc(F)cc1 [Example 242] | < 200 |
| CC[C@@]1(C(N)=O)COc2c1cc([C@@](O)(CNC(=O)c1cc(OC)c3nn(C(F)F)cc3c1)C(F)(F)F)nc2-c1ccc(F)cc1 [Example 243] | > 200 |
| CC[C@@]1(C(N)=O)COc2c1cc([C@@](O)(CNC(=O)c1cc(OC3CC3)c3ncccc3c1)C(F)(F)F)nc2-c1ccc(F)cc1 [Example 244] | > 200 |
| CC[C@@]1(C(N)=O)COc2c1cc([C@@](O)(CNC(=O)c1cc(OC)c3nc(C4CC4)cn3c1)C(F)(F)F)nc2-c1ccc(F)cc1 [Example 245] | < 200 |
| CC[C@@]1(C(N)=O)COc2c1cc([C@@](O)(CNC(=O)c1cc(OC)c3ncccc3c1)C(F)(F)F)nc2-c1ccc(F)cc1 [Example 246] | > 200 |
| CC[C@@]1(C(N)=O)COc2c1cc([C@@](O)(CNC(=O)c1cc(OC)c3nc(C)c(Cl)cc3c1)C(F)(F)F)nc2-c1ccc(F)cc1 [Example 247] | > 200 |
| CC[C@@]1(C(N)=O)COc2c1cc([C@@](O)(CNC(=O)c1cc(OC)c3ncc(C(F)(F)F)cc3c1)C(F)(F)F)nc2-c1ccc(F)cc1 [Example 248] | > 200 |
| CC[C@@]1(C(N)=O)COc2c1cc([C@@](O)(CNC(=O)c1ccc(OC3CC3)c(OC)c1)C(F)(F)F)nc2-c1ccc(F)cc1 [Example 250] | > 200 |
| CC[C@@]1(C(N)=O)COc2c1cc([C@@](O)(CNC(=O)c1ccc(OC[C@@H](C)O)c(OC3CC3)c1)C(F)(F)F)nc2-c1ccc(F)cc1 [Example 251] | > 200 |
| COc1cc(C(=O)NC[C@](O)(c2cc3c(c(-c4ccc(F)cc4)n2)OCC3(C(N)=O)C(F)F)C(F)(F)F)cc2c1=NC(C1CC1)N=2 (stereo partly shown) [Example 253] | < 200 |
| COc1cc(C(=O)NC[C@](O)(c2cc3c(c(-c4ccc(F)cc4)n2)OCC3(C(N)=O)C(F)F)C(F)(F)F)cc2cccnc12 (stereo partly shown) [Example 254] | < 200 |
| COc1cc(C(=O)NC[C@](O)(c2cc3c(c(-c4ccc(F)cc4)n2)OCC3(C(N)=O)C(F)F)C(F)(F)F)cc2cn(C(F)F)nc12 (stereo partly shown) [Example 255] | < 200 |
| COc1cc(C(=O)NC[C@](O)(c2cc3c(c(-c4ccc(F)cc4)n2)OCC3(C(N)=O)C(F)F)C(F)(F)F)cc2cc(Cl)c(C)nc12 (stereo partly shown) [Example 256] | < 200 |
| COc1cc(C(=O)NC[C@](O)(c2cc3c(c(-c4ccc(F)cc4)n2)OCC3(C(N)=O)C(F)F)C(F)(F)F)cc2cc(C(F)(F)F)cnc12 (stereo partly shown) [Example 257] | < 200 |
| NC(=O)C1(C(F)F)COc2c1cc([C@@](O)(CNC(=O)c1cc(F)c3nc(N)sc3c1)C(F)(F)F)nc2-c1ccc(F)cc1 (stereo partly shown) [Example 258] | < 200 |
| COc1cc(C(=O)NC[C@](O)(c2cc3c(c(-c4ccc(F)cc4)n2)OCC3(C(N)=O)C(F)F)C(F)(F)F)cn2cc(C3CC3)nc12 (stereo partly shown) [Example 259] | < 200 |
| COc1cc(C(=O)NC[C@](O)(c2cc3c(c(-c4ccc(F)cc4)n2)OCC3(C(N)=O)C(F)F)C(F)(F)F)ccc1OC1CC1 (stereo partly shown) [Example 261] | < 200 |
| NC(=O)[C@]1(C2CC2)COc2c1cc([C@@](O)(CNC(=O)c1cc(F)c3nc(N)sc3c1)C(F)(F)F)nc2-c1ccc(F)cc1 [Example 262] | > 200 |
| COc1cc(C(=O)NC[C@](O)(c2cc3c(c(-c4ccc(F)cc4)n2)OC[C@]3(C(N)=O)C2CC2)C(F)(F)F)cc2cc(C(F)(F)F)cnc12 [Example 264] | > 200 |
| COc1cc(C(=O)NC[C@](O)(c2cc3c(c(-c4ccc(F)cc4)n2)OC[C@]3(C(N)=O)C2CC2)C(F)(F)F)cc2cn(C(F)F)nc12 [Example 266] | > 200 |
| COc1cc(C(=O)NC[C@](O)(c2cc3c(c(-c4ccc(F)cc4)n2)OC[C@]3(C(N)=O)C2CC2)C(F)(F)F)cc2cccnc12 [Example 269] | > 200 |

More lines, now with the values ahead:

| EC50 [nM] | SMILES |
| --- | --- |
| > 200 | NC(=O)[C@]1(C2CC2)COc2c1cc([C@@](O)(CNC(=O)c1cc(OC3CC3)c3ncccc3c1)C(F)(F)F)nc2-c1ccc(F)cc1 [Example 271] |
| < 200 | COc1cc(C(=O)NC[C@](O)(c2cc3c(c(-c4ccc(F)cc4)n2)OC[C@@]3(C(N)=O)C2CC2)C(F)(F)F)cn2cc(C3CC3)nc12 [Example 272] |
| > 200 | COc1cc(C(=O)NC[C@](O)(c2cc3c(c(-c4ccc(F)cc4)n2)OC[C@]3(C(N)=O)C2CC2)C(F)(F)F)cn2cc(C3CC3)nc12 [Example 273] |
| < 200 | COc1cc(C(=O)NC[C@](O)(c2cc3c(c(-c4ccc(F)cc4)n2)OC[C@@]3(C(N)=O)C2CC2)C(F)(F)F)cc2cc(Cl)c(C)nc12 [Example 274] |
| < 200 | COc1cc(C(=O)NC[C@](O)(c2cc3c(c(-c4ccc(F)cc4)n2)OC[C@]3(C(N)=O)C2CC2)C(F)(F)F)cc2cc(Cl)c(C)nc12 [Example 275] |
| < 200 | COc1cc(C(=O)NC[C@](O)(c2cc3c(c(-c4ccc(F)cc4)n2)OC[C@@]3(C(N)=O)C2CC2)C(F)(F)F)ccc1OC1CC1 [Example 276] |
| > 200 | COc1cc(C(=O)NC[C@](O)(c2cc3c(c(-c4ccc(F)cc4)n2)OC[C@]3(C(N)=O)C2CC2)C(F)(F)F)ccc1OC1CC1 [Example 277] |
| < 200 | C[C@@H](O)COc1ccc(C(=O)NC[C@](O)(c2cc3c(c(-c4ccc(F)cc4)n2)OC[C@@]3(C(N)=O)C2CC2)C(F)(F)F)cc1OC1CC1 [Example 278] |
| > 200 | C[C@@H](O)COc1ccc(C(=O)NC[C@](O)(c2cc3c(c(-c4ccc(F)cc4)n2)OC[C@]3(C(N)=O)C2CC2)C(F)(F)F)cc1OC1CC1 [Example 279] |
| > 200 | COc1cc(C(=O)NC[C@](O)(c2cc3c(c(-c4ccc(F)cc4)n2)OC[C@]3(C(N)=O)C2CC2)C(F)(F)F)cc2cn(C3CC3)nc12 [Example 281] |
| > 200 | COc1cc(C(=O)NC[C@](O)(c2cc3c(c(-c4ccc(F)cc4)n2)OC[C@@]3(CF)C(N)=O)C(F)(F)F)cc2cccnc12 [Example 282] |
| < 200 | COc1cc(C(=O)NC[C@](O)(c2cc3c(c(-c4ccc(F)cc4)n2)OC[C@]3(CF)C(N)=O)C(F)(F)F)cc2cccnc12 [Example 283] |
| < 200 | COc1cc(C(=O)NC[C@](O)(c2cc3c(c(-c4ccc(F)cc4)n2)OC[C@@]3(CF)C(N)=O)C(F)(F)F)cc2cc(Cl)c(C)nc12 [Example 284] |
| < 200 | COc1cc(C(=O)NC[C@](O)(c2cc3c(c(-c4ccc(F)cc4)n2)OC[C@]3(CF)C(N)=O)C(F)(F)F)cc2cc(Cl)c(C)nc12 [Example 285] |
| < 200 | COc1cc(C(=O)NC[C@](O)(c2cc3c(c(-c4ccc(F)cc4)n2)OC[C@@]3(CF)C(N)=O)C(F)(F)F)cc2cc(C(F)(F)F)cnc12 [Example 286] |
| < 200 | COc1cc(C(=O)NC[C@](O)(c2cc3c(c(-c4ccc(F)cc4)n2)OC[C@]3(CF)C(N)=O)C(F)(F)F)cc2cc(C(F)(F)F)cnc12 [Example 287] |
| < 200 | COc1cc(C(=O)NC[C@](O)(c2cc3c(c(-c4ccc(F)cc4)n2)OCC3(CF)C(N)=O)C(F)(F)F)cc2cn(C(F)F)nc12 (stereo partly shown) [Example 288] |
| > 200 | NC(=O)[C@]1(CF)COc2c1cc([C@@](O)(CNC(=O)c1cc(F)c3nc(N)sc3c1)C(F)(F)F)nc2-c1ccc(F)cc1 [Example 289] |
| < 200 | NC(=O)[C@@]1(CF)COc2c1cc([C@@](O)(CNC(=O)c1cc(F)c3nc(N)sc3c1)C(F)(F)F)nc2-c1ccc(F)cc1 [Example 290] |
